Measured values taken from patent publication US11628172B2, “Methods of treating chronic lymphocytic leukemia using 2-(2,6-dioxopiperidin-3-yl)-4-((2-fluoro-4-((3-morpholinoazetidin-1-yl)methyl)benzyl)amino)isoindoline-1,3-dione” (Celgene Corporation, priority 2019, dated 2023).
Where two headings read alike, the source gives them in different places.

Legend:
Mec1 CLL cell line = assay: Cell proliferation and viability assay (384-well flow cytometry, Annexin V/DRAQ7), Mec1; assay type: cell-based; conditions: 120 hours
Method: (§1) The following are examples of cell-based assays that can be used to determine the anti-proliferative activity and apoptotic effect of compounds described herein using exemplary CLL cell lines (Table 3). The in vitro growth inhibitory activity of Compound 1 described herein was evaluated using a 384-well flow cytometry assay.
(§2) The cell lines were plated under the conditions shown in Table 3 in 384-well flat bottom plates and incubated with increasing concentrations of compound ranging from 0.00015 to 10 μM or dimethyl sulfoxide (DMSO) control. The final concentration of DMSO was 0.1% (v/v). Following the addition of Compound 1 or DMSO and incubation for 120 hours, cell number and cell death were analyzed by flow cytometry (Attune®, Thermo Fisher) using Annexin V and the live-cell impermeant DNA dye, DRAQ7. […]
(§3) Flow cytometry data analysis was then performed using the Flow Jo_v10 software to determine the number of viable cells (Annexin V and DRAQ7 double negative staining cells) and percentage of apoptotic cells (Annexin V positive cells) for each condition. […] The IC50 (50% inhibitory concentration) and Emax (maximum efficacy achieved) values were then calculated by performing nonlinear regression curve fitting using log (inhibitor) vs. normalized response—variable slope analysis on GraphPad Prism 7.03. […]

[1] = test system: primary CLL cells from patient-derived blood; assay: Cell proliferation and viability assay for B-cell CLL patient cells (ex vivo co-culture with CD154-expressing fibroblasts); assay type: cell-based, human; design: AUC: unit not given here; conditions: for Emax / IC50: Homo sapiens, CLL cell; for Emax: read-out: Emax (percentage of tumor cells remaining); for AUC: viable cell counts
Method: The following are examples of cell-based assays that can be used to determine the anti-proliferative activity and apoptosis effect of compounds described herein using exemplary CLL patient cells. The effect of Compound 1 on the viability and apoptosis of CLL B cells was assessed utilizing an ex vivo model.
CLL is characterized by accumulation of clonal CD5^+CD19^+ lymphocytes resistant to apoptosis. The effect of Compound 1 on the viability and apoptosis of CLL B cells was assessed utilizing an ex vivo model where primary CLL cells from patient-derived blood were stimulated with 10% fetal bovine serum (FBS), 5 ng/mL recombinant human interleukin-4 (rh IL-4), 10 ng/mL recombinant human interleukin-10 (rh IL-10) and co-cultured with fibroblast expressing surface CD154 (CD40L). The percentage of cells staining with Annexin V and/or DRAQ-7 was measured by flow cytometry assay after 3, 6 or 10 days of incubation with vehicle control or with increasing concentrations of Compound 1 ranging from 0.001 to 1 μM. Peripheral blood mononuclear cells (PBMCs) from CLL patients (Table 5) containing 70%-95% of CD5^+CD19^+ tumor cells were cultured on a monolayer of CD154-expressing fibroblasts in 24-well plates at a density of patient cells of 0.8×10^6 cells/well in RPMI 1640 medium supplemented with 10% FBS, 5 ng/mL rh IL-4 and 10 ng/mL rh IL-10 and were treated with vehicle control (0.1% DMSO) or increasing concentrations of Compound 1 ranging from 0.001 to 1 μM. After treatment, flow cytometric analysis was used to determine the number of cells that were viable or apoptotic.
After 3, 6 or 10 days of compound treatment, cells were incubated with Annexin V to capture the externalization of phosphatidylserine as a result of disturbed lipid asymmetry in the plasma membrane of cells, a well-characterized event in apoptosis, and the vital far-red fluorescent DNA dye DRAQ-7, that only stains the nuclei of dead and permeabilized cells, and analyzed by flow cytometry (Attune®, Thermo Fisher). Analysis was then performed to determine the percentage of viable live cells (Annexin V and DRAQ-7 double negative staining cells) using FlowJo_V10 and graphed with GraphPad Prism 7.03 software. The live cell count for every condition was normalized to the DMSO control (considered as 100% viable cells) to calculate the percentage of viable cells remaining after treatment. The IC50 (50% inhibitory concentration) and Emax (maximum efficacy eliminating tumor cells achieved) values were then calculated by performing nonlinear regression curve fitting using log(inhibitor) vs. normalized response—variable slope analysis on GraphPad Prism 7.03. Area under the curve (AUC) value of the viable cell counts over time was calculated by performing area under curve analysis on GraphPad Prism 7.03 (Table 6).

HG3 CLL cell line = assay: Cell proliferation and viability assay (384-well flow cytometry, Annexin V/DRAQ7), HG3; assay type: cell-based; conditions: 120 hours
Method: as §1, §2, §3

EHEB CLL cell line = assay: Cell proliferation and viability assay (384-well flow cytometry, Annexin V/DRAQ7), EHEB; assay type: cell-based; conditions: 120 hours
Method: as §1, §2, §3

WA-C3-CD5+ CLL cell line = assay: Cell proliferation and viability assay (384-well flow cytometry, Annexin V/DRAQ7), WA-C3-CD5+; assay type: cell-based; conditions: 120 hours
Method: as §1, §2, §3

Mec2 CLL cell line = assay: Cell proliferation and viability assay (384-well flow cytometry, Annexin V/DRAQ7), Mec2; assay type: cell-based; conditions: 120 hours
Method: as §1, §2, §3

WA-OSEL CLL cell line = assay: Cell proliferation and viability assay (384-well flow cytometry, Annexin V/DRAQ7), WA-OSEL; assay type: cell-based; conditions: 120 hours
Method: as §1, §2, §3

CI CLL cell line = assay: Cell proliferation and viability assay (384-well flow cytometry, Annexin V/DRAQ7), CI; assay type: cell-based; conditions: 120 hours
Method: as §1, §2, §3

PGA1 CLL cell line = assay: Cell proliferation and viability assay (384-well flow cytometry, Annexin V/DRAQ7), PGA1; assay type: cell-based; conditions: 120 hours
Method: as §1, §2, §3

[2] = Pt10, ex vivo CLL patient cells

O=C1CC[C@H](N2C(=O)c3cccc(NCc4ccc(CN5CC(N6CCOCC6)C5)cc4F)c3C2=O)C(=O)N1 [Compound 1, (S)-2-(2,6-dioxopiperidin-3-yl)-4-((2-fluoro-4-((3-morpholinoazetidin-1-yl)methyl)benzyl)amino)isoindoline-1,3-dione]
% Viable Cells Emax (percentage of tumor cells remaining) (Mec1 CLL cell line): 83.45%
Emax ([1]; Pt1, ex vivo CLL patient cells): 4.62%
IC50 ([1]; Pt2, ex vivo CLL patient cells, 0.001 to 1 μM, viable cells normalized to DMSO, read-out: IC50): 1.05 nM
Emax ([1]; Pt2, ex vivo CLL patient cells): 30.6%
IC50 ([1]; Pt3, ex vivo CLL patient cells, 0.001 to 1 μM, viable cells normalized to DMSO, read-out: IC50): 0.723 nM
Emax ([1]; Pt3, ex vivo CLL patient cells): 13%
Emax ([1]; Pt4, ex vivo CLL patient cells): 6.5%
IC50 ([1]; Pt5, ex vivo CLL patient cells, 0.001 to 1 μM, viable cells normalized to DMSO, read-out: IC50): 0.305 nM
Emax ([1]; Pt5, ex vivo CLL patient cells): 22.8%
IC50 ([1]; Pt6, ex vivo CLL patient cells, 0.001 to 1 μM, viable cells normalized to DMSO, read-out: IC50): 2.75 nM
Emax ([1]; Pt6, ex vivo CLL patient cells): 27.4%
IC50 ([1]; Pt7, ex vivo CLL patient cells, 0.001 to 1 μM, viable cells normalized to DMSO, read-out: IC50): 0.036 nM
Emax ([1]; Pt7, ex vivo CLL patient cells): 5.87%
IC50 ([1]; Pt8, ex vivo CLL patient cells, 0.001 to 1 μM, viable cells normalized to DMSO, read-out: IC50): 0.209 nM
Emax ([1]; Pt8, ex vivo CLL patient cells): 4.82%
IC50 ([1]; Pt9, ex vivo CLL patient cells, 0.001 to 1 μM, viable cells normalized to DMSO, read-out: IC50): 0.0652 nM
Emax ([1]; Pt9, ex vivo CLL patient cells): 4.14%
IC50 ([1]; Pt10, ex vivo CLL patient cells, 0.001 to 1 μM, viable cells normalized to DMSO, read-out: IC50): 0.129 nM
Emax [1, 2]: 10.2%
IC50 ([1]; all CLL patient samples evaluated, read-out: concentrations that led to 50% inhibition of growth (IC50)): 0.1 to 3 nM
AUC ([1]; Pt1, ex vivo CLL patient cells): 32.79
AUC ([1]; Pt2, ex vivo CLL patient cells): 181.6
AUC ([1]; Pt3, ex vivo CLL patient cells): 106.1
AUC ([1]; Pt4, ex vivo CLL patient cells): 44.01
AUC ([1]; Pt5, ex vivo CLL patient cells): 139.6
AUC ([1]; Pt6, ex vivo CLL patient cells): 154.9
AUC ([1]; Pt7, ex vivo CLL patient cells): 44.86
AUC ([1]; Pt8, ex vivo CLL patient cells): 75.03
AUC ([1]; Pt9, ex vivo CLL patient cells): 48.14
AUC [1, 2]: 57.87
% Viable Cells Emax (percentage of tumor cells remaining) (HG3 CLL cell line): 59.58%
% Viable Cells Emax (percentage of tumor cells remaining) (EHEB CLL cell line): 28.68%
% Viable Cells Emax (percentage of tumor cells remaining) (WA-C3-CD5+ CLL cell line): 44.2%
% Viable Cells Emax (percentage of tumor cells remaining) (Mec2 CLL cell line): 25.55%
% Viable Cells Emax (percentage of tumor cells remaining) (WA-OSEL CLL cell line): 54.42%
% Viable Cells Emax (percentage of tumor cells remaining) (CI CLL cell line): 53.58%
% Viable Cells Emax (percentage of tumor cells remaining) (PGA1 CLL cell line): 69.21%
